Assay results from US7368424B2, “Acylated nonadepsipeptides” (AiCuris GmbH & Co. KG, priority 2003, dated 2008).
Converted amounts (≈) assume the structure as drawn. Like-named read-outs stand apart in the source and are kept apart here. *1 amine or outer side, *2 acyl side, *3 side chain or, on linkers, in order; H or OH if unused. Where a SMILES comes first, the peptide text is derived from it. Bridges are numbered along the chain shown (N, C = ends). [ ]: non-standard residue; d: D form. The star is where a group is joined. ξ: configuration not given here. Phe(3R-OH) = O=C([C@@H](N[*:1])[C@H](O[*:3])c1ccccc1)[*:2]; Asn(3S-OH) = NC(=O)[C@@H](O)[C@H](N)C(=O)O; Leu(3R-OH) = CC(C)[C@@H](O)[C@H](N)C(=O)O; dAla(TMS) = C[Si](C)(C)C[C@@H](N)C(=O)O; d(tBuAla) = CC(C)(C)C[C@@H](N)C(=O)O; Ala(cPr) = N[C@@H](CC1CC1)C(=O)O; 3Pal = N[C@@H](Cc1cccnc1)C(=O)O; aThr = C[C@H](O)[C@H](N)C(=O)O; ξIle = CC[C@H](C)C(N)C(=O)O; Cbz = O=C(OCc1ccccc1)*; OtBu = CC(C)(C)O*; tBu = CC(C)(C)*

What was measured:
E. faecium L4001 = format: cell-based, Enterococcus faecium
[1] = test system: Staphylococcus aureus 133; format: cell-based
Experimental: (§1) Determination of the Minimum Inhibitory Concentration (MIC):
(§2) The MIC is determined in the liquid dilution test in accordance with the NCCLS guidelines. Overnight cultures of Staphylococcus aureus 133, Enterococcus faecalis 27159, E. faecium 4147 and Streptococcus pneumoniae G9a are incubated with the desired test substances in a 1:2 dilution series. The MIC determination is carried out with a cell count of 10^5 microbes per ml in Isosensitest medium (Difco, Irvine/USA), with the exception of S. pneumoniae which is tested in BHI broth (Difco, Irvine/USA) with 10% bovine serum with a cell count of 10^6 microbes per ml. The cultures are incubated at 37° C. for 18-24 hours, S. pneumoniae in the presence of 10% CO2.
(§3) The MIC is defined as the lowest concentration of each substance at which visible bacterial growth no longer occurs. The MIC values are reported in μg/ml.

[2] = test system: Streptococcus pneumoniae G9a; format: cell-based
Experimental: as §1, §2, §3

E. faecalis ICB 27159 = format: cell-based, Enterococcus faecalis
Experimental: as §1, §2, §3

[3] = Isosensitest medium, 10^5 microbes per ml, 37° C., 18-24 hours

SMILES | MIC E. faecium L4001 (E. faecium L4001; L4001) | MIC S. aureus 133 [1]; 133 | MIC S. pneumoniae ([2]; G9a) | MIC E. faecalis ICB 27159 (E. faecalis ICB 27159; ICB 27159) | MIC E. faecium L4001 (E. faecium L4001; [3]) | MIC S. aureus 133 [1, 3] | MIC S. pneumoniae ([2]; BHI broth with 10% bovine serum, 10^6 microbes per ml, 10% CO2, 37° C., 18-24 hours) | MIC E. faecalis ICB 27159 (E. faecalis ICB 27159; [3])
CC[C@H](C)[C@@H]1NC(=O)[C@@H](CCCNC(=N)N)NC(=O)[C@H](CC(C)C)NC(=O)[C@H]([C@H](O)C(C)C)NC(=O)[C@@H](NC(=O)[C@H](CC2CC2)NC(=O)[C@H](N)CC(C)C)[C@@H](c2ccccc2)OC(=O)[C@H](CO)NC(=O)[C@H]([C@H](O)C(N)=O)NC(=O)CNC(=O)[C@H]([C@H](C)O)NC1=O.O=C(O)C(F)(F)F.O=C(O)C(F)(F)F [Example 1, D-leucyl-N^1-{(3S,6S,12S,15S,18R,21S,24S,27S,28R)-6-[(1S)-2-amino-1-hydroxy-2-oxoethyl]-18-(3-{[amino(imino)methyl]amino}propyl)-12-[(1S)-1-hydroxyethyl]-3-(hydroxymethyl)-24-[(1R)-1-hydroxy-2-methylpropyl]-21-isobutyl-15-[(1S)-1-methylpropyl]-2,5,8,11,14,17,20,23,26-nonaoxo-28-phenyl-1-oxa-4,7,10,13,16,19,22,25-octaazacyclooctacosan-27-yl}-3-cyclopropyl-L-alaninamide bistrifluoroacetate] (H-[dL][Ala(cPr)][Phe(3R-OH)][Leu(3R-OH)]L[dR]I[aThr]G[Asn(3S-OH)]S; ester 3-C) | 0.5 µg/mL | 0.125 µg/mL | 0.125 µg/mL | 0.5 µg/mL |  |  |  | 
CC[C@H](C)[C@@H]1NC(=O)[C@@H](CCCNC(=N)N)NC(=O)[C@H](CC(C)C)NC(=O)[C@H]([C@H](O)C(C)C)NC(=O)[C@@H](NC(=O)[C@H](CC(C)C)NC(=O)[C@H](N)CCSC)[C@@H](c2ccccc2)OC(=O)[C@H](CO)NC(=O)[C@H]([C@H](O)C(N)=O)NC(=O)CNC(=O)[C@H]([C@H](C)O)NC1=O [Example 24, D-Methionyl-de(1-D-leucyl)lysobactin bistrifluoroacetate] (H-[dM]L[Phe(3R-OH)][Leu(3R-OH)]L[dR]I[aThr]G[Asn(3S-OH)]S; ester 3-C) | 1 µg/mL (≈ 0.772 µM) | 0.25 µg/mL (≈ 0.193 µM) | 0.5 µg/mL (≈ 0.386 µM) | 2 µg/mL (≈ 1.54 µM) |  |  |  | 
CC[C@H](C)C1NC(=O)[C@@H](CCCNC(=N)N)NC(=O)[C@H](CC(C)C)NC(=O)[C@H]([C@H](O)C(C)C)NC(=O)[C@@H](NC(=O)[C@H](CC(=O)OC(C)(C)C)NC(=O)[C@H](N)CC(C)(C)C)[C@@H](c2ccccc2)OC(=O)[C@H](CO)NC(=O)[C@H]([C@H](O)C(N)=O)NC(=O)CNC(=O)[C@H]([C@H](C)O)NC1=O.O=C(O)C(F)(F)F.O=C(O)C(F)(F)F (stereo partly drawn) [Example 101, (2S)-2-[(3-tert-Butyl-D-alanyl)amino]-4-tert-butoxy-4-oxobutanoyl-de(1-D-leucyl-2-L-leucyl)lysobactin bistri-fluoroacetate] (H-[d(tBuAla)]D(OtBu)[Phe(3R-OH)][Leu(3R-OH)]L[dR][ξIle][aThr]G[Asn(3S-OH)]S; ester 3-C) |  |  |  |  | 1 µg/mL | 1 µg/mL | 0.5 µg/mL | 1 µg/mL
CC[C@H](C)[C@@H]1NC(=O)[C@@H](CCCNC(=N)N)NC(=O)[C@H](CC(C)C)NC(=O)[C@H]([C@H](O)C(C)C)NC(=O)[C@@H](NC(=O)[C@H](CC(C)C)NC(=O)[C@H](N)C[Si](C)(C)C)[C@@H](c2ccccc2)OC(=O)[C@H](CO)NC(=O)[C@H]([C@H](O)C(N)=O)NC(=O)CNC(=O)[C@H]([C@H](C)O)NC1=O [Example 59, 3-(Trimethylsilyl-D-alanyl-de(1-D-leucyl)lysobactin bistrifluoroacetate] (H-[dAla(TMS)]L[Phe(3R-OH)][Leu(3R-OH)]L[dR]I[aThr]G[Asn(3S-OH)]S; ester 3-C) | 0.25 µg/mL (≈ 0.191 µM) | 0.125 µg/mL (≈ 0.0957 µM) | <0.063 µg/mL | 0.25 µg/mL (≈ 0.191 µM) |  |  |  | 
CC[C@H](C)C1NC(=O)[C@@H](CCCNC(=N)N)NC(=O)[C@H](CC(C)C)NC(=O)[C@H]([C@H](O)C(C)C)NC(=O)[C@@H](NC(=O)[C@H](CCCCNC(=O)OCc2ccccc2)NC(=O)[C@H](N)CC(C)(C)C)[C@@H](c2ccccc2)OC(=O)[C@H](CO)NC(=O)[C@H]([C@H](O)C(N)=O)NC(=O)CNC(=O)[C@H]([C@H](C)O)NC1=O.O=C(O)C(F)(F)F.O=C(O)C(F)(F)F (stereo partly drawn) [Example 107, {(3-tert-Butylalanyl)-[N^6-(benzyloxycarbonyl)lysyl]}-de(1-D-leucyl-2-L-leucyl)lysobactin bistrifluoroacetate] (H-[d(tBuAla)]K(Cbz)[Phe(3R-OH)][Leu(3R-OH)]L[dR][ξIle][aThr]G[Asn(3S-OH)]S; ester 3-C) | 0.5 µg/mL | 0.25 µg/mL | 0.25 µg/mL | 1 µg/mL |  |  |  | 
CC[C@H](C)[C@@H]1NC(=O)[C@@H](CCCNC(=N)N)NC(=O)[C@H](CC(C)C)NC(=O)[C@H]([C@H](O)C(C)C)NC(=O)[C@@H](NC(=O)[C@H](Cc2cccnc2)NC(=O)[C@H](N)CC(C)(C)C)[C@@H](c2ccccc2)OC(=O)[C@H](CO)NC(=O)[C@H]([C@H](O)C(N)=O)NC(=O)CNC(=O)[C@H]([C@H](C)O)NC1=O [Example 69, 3-tert-Butyl-D-alanyl-3-(3-pyridyl)-L-alanyl-de(1-D-leucyl-2-L-leucyl)lysobactin tristrifluoroacetate] (H-[d(tBuAla)][3Pal][Phe(3R-OH)][Leu(3R-OH)]L[dR]I[aThr]G[Asn(3S-OH)]S; ester 3-C) | 1 µg/mL (≈ 0.754 µM) | 0.5 µg/mL (≈ 0.377 µM) | 0.5 µg/mL (≈ 0.377 µM) | 1 µg/mL (≈ 0.754 µM) |  |  |  | 
CC[C@H](C)[C@@H]1NC(=O)[C@@H](CCCNC(=N)N)NC(=O)[C@H](CC(C)C)NC(=O)[C@H]([C@H](O)C(C)C)NC(=O)[C@@H](NC(=O)[C@H](CC(C)C)NC(=O)[C@H](N)COC(C)(C)C)[C@@H](c2ccccc2)OC(=O)[C@H](CO)NC(=O)[C@H]([C@H](O)C(N)=O)NC(=O)CNC(=O)[C@H]([C@H](C)O)NC1=O [Example 47, [O-(tert-Butyl)-D-seryl]-de(1-D-leucyl)lysobactin bistrifluoroacetate] (H-[dS](tBu)L[Phe(3R-OH)][Leu(3R-OH)]L[dR]I[aThr]G[Asn(3S-OH)]S; ester 3-C) | 1 µg/mL (≈ 0.765 µM) | 0.25 µg/mL (≈ 0.191 µM) | 0.25 µg/mL (≈ 0.191 µM) | 2 µg/mL (≈ 1.53 µM) |  |  |  | 
